These results are taken from publication PMC2360244 (British Journal of Cancer, 2007).

Data set [1] concerns lung, breast, colon, prostate and ovarian tumour cell lines. The data set can be described thus: cells. The following applies: Homo sapiens, 96 h, read-out: IC50 values, cell proliferation of solid tumour cell lines (range over panel), lung, breast, colon, prostate and ovarian tumour cell lines; 4-day incubation.
Description: The effect of HDAC inhibitors on cell proliferation was measured using an MTT (3-(4,5-dimethyl-2-thiazolyl)-2,5-diphenyl-2H-tetrazolium bromide)-based assay (Serva, Heidelberg, Germany). Cells were seeded in Falcon or NUNC 96-well culture plates (Life Technologies, Merelbeke, Belgium) in 100 μl culture medium and allowed to adhere to plastic for 18–48 h. Test compounds were dissolved in DMSO and further dilutions were made in culture medium, with final concentrations of DMSO never exceeding 0.1% (v v^−1), and incubated for 4 days. Proliferation of NSCLC was assessed using Alamar Blue-based assay. Cells were seeded in COSTAR 384-well culture plates in 45 μl culture medium and allowed to adhere to plastic for 24 h. Alamar blue was added after 72 h, with the exception of HCC-15, HCC-44, NCI-H2122 and NCI-H460, where Alamar blue was added after 90 h and OD values were measured at 4 days following compound exposure. Data are presented as mean±s.d. of three independent experiments.
For data set [2], the system named is HCT116 colon carcinoma xenograft. The data set can be described thus: HCT116 colon xenograft, tumour growth. The format is in vivo, mice. The following applies: median tumour size at end of study. Here is the method:
(§1) All mice used in the in vivo studies were athymic male NMRI nu/nu mice purchased from Janvier (France) and were treated according to the ethical guidelines prescribed by UKCCCR. A2780 ovarian, HCT116 colon and H460 lung carcinoma cells were injected s.c. (10^7 cells per 200 μl) into the inguinal region of Nude mice. […] Tumour size was determined using caliper measurement and tumour volume was determined by using the formula: TV=(a^2 × b)/2 (in which a represents the width and b the length).
Mice were treated orally once daily (q.d.) between day 4 and 28 (A2780) or between day 4 and 32 (H460 and HCT116). (A) A2780 ovarian tumours were measured at least twice a week throughout the study, and results are represented as the median tumour size, expressed in mm^3, of each individual group (n=10). (B) Mice were treated orally q.d. at the indicated doses. Results are represented as the treated/control values (%) of the median tumour size (n=10) at the end of the study.

For data set [3], the system named is primary human mammary epithelial cells (HMEC). The experiment in a line: cells. Here is the method: (§2) Control cells were treated with the combined respective vehicle.
In a further data set the test system is HUVECs. The experiment in a line: cells. To be noted: Homo sapiens, HUVEC, read-out: IC50, growth of HUVECs. Here is the method: as §2
Another data set has as its system p21waf1,cip1 promoter. The experiment in a line: p21waf1,cip1 promoter activity in vivo, A2780-p21waf1,cip1ZsGreen xenograft. Details: species or system mice. To be noted: 40 mpk p.o. once, 24 h after dosing. Here is the method: To generate an HDAC inhibitor-responsive p21^waf1,cip1 promoter construct, the –1300 to +88 region of the p21^waf1,cip1 promoter was cloned into pGL3-basic-ZsGreen and stably transfected into A2780 ovarian carcinoma cells ([Belien et al, 2006]). For in vivo analysis of p21^waf1,cip1 promoter activity, A2780-p21^waf1,cip1ZsGreen cells were injected s.c. (10^7 cells per 200 μl) into the inguinal region of Nude mice and caliper-measurable tumours were obtained after 12 days. […] Tumours were collected using transcardial perfusion fixation with 4% paraformaldehyde. Cryosections of 10-μm thickness were mounted on glass slides and air-dried for 30 min at room temperature. Bodipy 558/568-phalloidin staining was performed on whole mounts to visualise actin (background cell staining). ZsGreen fluorescence was evaluated with an Axioplan 2 (Zeiss, Germany) equipped with Epiplan-Neofluar objectives and an Axiocam camera. CD-31 (CY3) immunofluorescent labelling was performed on whole mounts to visualise the endothelium of blood vessels.
(A) Tumours were harvested 4 h after the last dose. Nuclei are stained with Hoechst, while (CY3) immunofluorescent labelling was performed to visualise acetylated H3. Representative sections from […] independent mice are shown. (B) and (C) Tumours were collected after 24 h using transcardial perfusion fixation with 4% paraformaldehyde. […]

Data set [4] is described as follows: Tolerability of once-daily oral dosing for 28 days. The format is in vivo. To be noted: up to 40 mpk p.o., immunodeficient mice. Here is the method: as §1
Data set [5] concerns acetylated H3 in A2780 ovarian xenografts. The data set can be described thus: H3 acetylation in A2780 xenograft tumour tissue, immunofluorescence. The format is in vivo, mice. The following applies: 40 mpk p.o. once daily, tumours harvested 4 h after dosing, day 2. Here is the method:
For immunofluorescent staining of AcH3, cryosections of A2780 ovarian carcinoma were fixed for 2 min in 4% neutral buffered formalin and subsequently for 10 min in ethanol (100%). After blocking with goat immunoglobulin (Jackson Immunoresearch Laboratories, Suffolk, UK) for 60 min, the sections were incubated with anti-AcH3 (Upstate, 1/5000) for 2 h and with goat anti-rabbit CY3-conjugated secondary antibody (1/500 Jackson Immunoresearch Laboratories) for 2 h. For negative controls, primary antibody was omitted. Nuclei were counterstained using Hoechst (1/2000) for 5 min and the cryosections were mounted in glycerin-gelatin. Images were taken using the Zeiss Axioplan 2 & Axiocam, and processed using Photoshop 7.0 and Image Tool Processing Kit. Representative images of each group (n=3) are shown. For TUNEL staining, cells were fixed with 4% paraformaldehyde for 5 min and then incubated for 1 h at 37°C in a solution containing 25 mM Tris, 200 mM sodium cacodylate, 1.25 mg ml^−1 BSA, 1.25 mM CoCl2, 10 mM dATP (Sigma Chemical Company), 2.5 mM fluorescein-dUTP (Amersham Pharmacia Biotech AB) and 50 U ml^−1 TdT (Roche, Vilvoorde, Belgium). Incorporated Fluorescein-dUTP was detected with a sheep antifluorescein peroxidase-conjugated antiserum (Boehringer Mannheim, 1/600, Roche, Vivoorde, Belgium). The peroxidase conjugate was visualised using amino ethylcarbazol. […]

Data set [6] has as its system H3 acetylation and p21waf1,cip1 in A2780 ovarian carcinoma cells. The data set can be described thus: Western blot of acetylated H3 and p21waf1,cip1 in A2780 cells (class I HDAC readout). The class given is cell-based, human. Here is the method:
Human A2780 ovarian carcinoma cells were incubated with the indicated concentrations of HDAC inhibitors. Total cell lysates were prepared and analysed by SDS–PAGE. […] To control for equal loading, blots were stripped and re-probed with mouse monoclonal antiactin IgM (Ab-1, Oncogene Research products, Merck, Darmstadt, Germany). […] Protein–antibody complexes were then visualised by chemiluminescence (Pierce Chemical Co., Perbioscience, Erembodegem, Belgium) or fluorescence (Odyssey) according to manufacturer's instructions.
Total cell lysates were prepared and analysed by SDS–PAGE. Levels of acetylated H3 and tubulin, and of total levels of H3 and tubulin and of p21^waf1, cip1 and Hsp70 and c-raf protein, were detected using rabbit polyclonal and mouse monoclonal antibodies, followed by ECL detection as indicated in the Methods section. To control for equal loading, blots were stripped and re-probed with antibodies against actin and the nuclear protein Lamin B1. A representative experiment out of three is shown.
(In general: Immunoblotting shows a protein as a band on a membrane.)

Like-named read-outs stand apart in the source and are kept apart here.

For `O=C(NO)c1cnc(N2CCN(S(=O)(=O)c3ccc4ccccc4c3)CC2)nc1` [R306465], the IC50 in data set [1] is 30 to 300 nM; in data set [3] (read-out: IC50, primary HMEC proliferation) it was 0.032 ± 0.0097 µM; in data set [3] (read-out: IC50, quiescent non-proliferative HMEC cells) it was 7.82 ± 0.435 µM; in the data set on HUVECs it was 186 ± 23 nM. Further, the “T/C values (%) HCT116 colon” value in data set [2] (10 mpk p.o. q.d. day 4 to 32) is 76%; in data set [2] (20 mpk p.o. q.d. day 4 to 32), 75%; in data set [2] (30 mpk p.o. q.d. day 4 to 32), 57%; in data set [2] (40 mpk p.o. q.d. day 4 to 32), 34%. Besides, in the data set on p21waf1,cip1 promoter, the “p21waf1,cip1 promoter activation (ZsGreen fluorescence) in tumour sections” value is “large number of fluorescing cells”. The tolerability result in data set [4] is “well-tolerated”. The “H3 acetylation in tumour tissue” value in data set [5] was “maximal and homogeneous increase in H3 acetylation”. For the same compound, the “concentration at which H3 acetylation is induced” value in data set [6] (24 h, western blot) turned out to be 100 nM. Further, the “concentration at which p21waf1,cip1 is induced” value in data set [6] (24 h, western blot) was 100 nM. Also, the “cellular potency for HDAC1 vs HDAC6 (higher for HDAC1)” value in data set [6] (H3 acetylation vs tubulin acetylation) was 10 fold.
